# Assay results from patent publication US9708251B2, “Unsaturated fatty alcohol alkoxylates from natural oil metathesis” (Stepan Company, priority 2012, dated 2017).
# Tests used:
# Format in all cases: physicochemical
# [1] = Emulsion stability testing of nonionic emulsifiers, Hallcomid solvent series; parameters: key to 24 h separation, appearance / 1 h separation, appearance / 1 h separation, amount: C = creamy; CO = creamy oil; O = oil; GC = gritty cream; NS = no separation; OC = oily cream; key to Spon. (spontaneity): G = good; F = fair; P = poor
# Protocol: (§1) Nonionic samples contain a low amount of water (<1%) and are prepared as emulsifiable concentrates with three pesticides using two different solvent systems. In the aromatic solvent series, the nonionic sample replaces Toximul® 8240 (castor oil ethoxylate, 36 POE, Stepan), and in the Hallcomid™ (N,N-dimethylcaprylamide/N,N-dimethylcapramide, Stepan) solvent series, the nonionic sample replaces Ninex® MT-630F.
# (§2) Hallcomid Solvent Series.
# (§3) Sample preparation: The surfactants are combined and stirred until homogeneous, with the nonionic sample melted if needed prior to combination. Controls 1-3 are made by using Ninex MT-630F in the amounts indicated instead of the nonionic sample.
# (§4) Emulsion Stability Testing
# (§5) A Mohr pipette is used to feed pesticide/surfactant concentrates to each cylinder.
# [2] = Surfactant phase behavior study (cross-polarized microscopy); conditions: room temperature
# Protocol: Phase behavior is observed using an Olympus BH-2 cross-polarized microscope at 100-400× and room temperature (20° C. to 22° C.). The inventive monounsaturated alcohol ethoxylates are compared with their saturated analogs.
# Samples are prepared by diluting the most concentrated product gradually with deionized water. When the surfactant concentration approaches a phase transition, the concentration is varied at 2-4% intervals to estimate the phase boundary. The actives level reported in Table 4 for each phase boundary is within ±5% of the true boundary.
# Samples are loaded between a microscope slide and cover glass and are allowed to equilibrate before observation. Microscopic texture is analyzed and used to determine the phase. For some samples, an AR 2000 rheometer (TA Instruments) is used to measure viscosity at 25° C. to further verify phase behavior.
# [3] = Emulsion stability testing of nonionic emulsifiers, Hallcomid solvent series; parameters: key: C = creamy; CO = creamy oil; O = oil; GC = gritty cream; NS = no separation; OC = oily cream; conditions: Bifenthrin 240 g/L in Hallcomid M-8-10, 34 ppm water
# Protocol: as §1, §2, §3, §4, §5
# [4] = Emulsion stability testing of nonionic emulsifiers, aromatic solvent series; parameters: key to 24 h separation, appearance / 1 h separation, appearance / 1 h separation, amount: C = creamy; CO = creamy oil; O = oil; GC = gritty cream; NS = no separation; OC = oily cream; key to Spon. (spontaneity): G = good; F = fair; P = poor
# Protocol: as §1
# Sample preparation: Ninate® 60E (calcium alkylbenzenesulfonate, Stepan) and the test sample are stirred until homogeneous. […] Controls 1-3 are made by using Toximul 8240 in the amounts indicated instead of the nonionic sample.
# Formulations: • 1. Bifenthrin, 240 g/L (2.99 g), Aromatic 100 (ExxonMobil, 8.05 g), Ninate 60E (0.38 g), and nonionic sample or Toximul 8240 (0.58 g). • 2. 2,4-D ester, 480 g/L (8.90 g), Exxsol® D-110 (ExxonMobil, 2.50 g), Ninate 60E (0.36 g), and nonionic sample or Toximul 8240 (0.24 g). • 3. Tebuconazole, 360 g/L (4.45 g), N-methyl-2-pyrrolidone (6.35 g), Ninate 60E (0.48 g), nonionic sample or Toximul 8240 (0.72 g).
# as §4, §5
# [5] = 2,4-D diester 480 g/L in Hallcomid M-8-10, 34 ppm water
# [6] = 2,4-D diester 480 g/L in Hallcomid M-8-10, 1000 ppm water
# [7] = Bifenthrin 240 g/L in Hallcomid M-8-10, 34 ppm water
# [8] = Bifenthrin 240 g/L in Hallcomid M-8-10, 1000 ppm water
# [9] = Tebuconazole 360 g/L in Hallcomid M-8-10, 34 ppm water
# [10] = Tebuconazole 360 g/L in Hallcomid M-8-10, 1000 ppm water
# [11] = 2,4-D ester 480 g/L in Exxsol D-110, 34 ppm water
# [12] = 2,4-D ester 480 g/L in Exxsol D-110, 1000 ppm water
# [13] = Bifenthrin 240 g/L in Aromatic 100, 34 ppm water
# [14] = Bifenthrin 240 g/L in Aromatic 100, 1000 ppm water
# [15] = Tebuconazole 360 g/L in N-methyl-2-pyrrolidone, 34 ppm water
# [16] = Tebuconazole 360 g/L in N-methyl-2-pyrrolidone, 1000 ppm water
structure (smiles),measurement,setting,value
CCC=CCCCCCCCCOCCOCCOCCO (mixture of isomers) [A12-7],"1 h separation, amount",[1]; [5],6 mL
same,"1 h separation, appearance",[1]; [5],C
same,"24 h separation, amount",[1]; [5],10 mL
same,"24 h separation, appearance",[1]; [5],C
same,Spon. (spontaneity),[1]; [5],F
same,"1 h separation, amount",[1]; [6],6.7 mL
same,"1 h separation, appearance",[1]; [6],C
same,"24 h separation, amount",[1]; [6],8.2 mL
same,"24 h separation, appearance",[1]; [6],C
same,Spon. (spontaneity),[1]; [6],F
same,"1 h separation, amount",[1]; [7],NS
same,Spon. (spontaneity),[1]; [7],G
same,"1 h separation, amount",[1]; [8],10.2 mL
same,"1 h separation, appearance",[1]; [8],C
same,"24 h separation, amount",[1]; [8],"2 O, 3.5 CO"
same,Spon. (spontaneity),[1]; [8],F
same,"1 h separation, amount",[1]; [9],2 mL
same,"1 h separation, appearance",[1]; [9],C
same,"24 h separation, amount",[1]; [9],5.1 mL
same,"24 h separation, appearance",[1]; [9],C
same,Spon. (spontaneity),[1]; [9],F
same,"1 h separation, amount",[1]; [10],2.7 mL
same,"1 h separation, appearance",[1]; [10],C
same,"24 h separation, amount",[1]; [10],4.9 mL
same,"24 h separation, appearance",[1]; [10],C
same,Spon. (spontaneity),[1]; [10],F
same,"combined isotropic phases (clear and opaque), share of the total",[2],about 66%
same,Isotropic Clear phase region,[2]; in deionized water,74-100 % Actives Level
same,Isotropic Opaque phase region,[2]; in deionized water,0-40 % Actives Level
same,Lamellar phase region,[2]; in deionized water,40-74 % Actives Level
same,"24 h separation, amount",[3],NS
same,"1 h separation, amount",[4]; [11],3.2 mL
same,"1 h separation, appearance",[4]; [11],C
same,"24 h separation, amount",[4]; [11],5.5 mL
same,"24 h separation, appearance",[4]; [11],C
same,Spon. (spontaneity),[4]; [11],P
same,"1 h separation, amount",[4]; [12],4.2 mL
same,"1 h separation, appearance",[4]; [12],O
same,"24 h separation, amount",[4]; [12],"0.8 O, 3.3 CO"
same,Spon. (spontaneity),[4]; [12],P
same,"1 h separation, amount",[4]; [13],8.8 mL
same,"1 h separation, appearance",[4]; [13],C
same,"24 h separation, amount",[4]; [13],6.8 mL
same,"24 h separation, appearance",[4]; [13],C
same,Spon. (spontaneity),[4]; [13],P
same,"1 h separation, amount",[4]; [14],4.5 mL
same,"1 h separation, appearance",[4]; [14],O
same,"24 h separation, amount",[4]; [14],4.9 mL
same,"24 h separation, appearance",[4]; [14],O
same,Spon. (spontaneity),[4]; [14],P
same,"1 h separation, amount",[4]; [15],2.3 mL
same,"1 h separation, appearance",[4]; [15],C
same,"24 h separation, amount",[4]; [15],3 mL
same,"24 h separation, appearance",[4]; [15],GC
same,Spon. (spontaneity),[4]; [15],P
same,"1 h separation, amount",[4]; [16],2.6 mL
same,"1 h separation, appearance",[4]; [16],C
same,"24 h separation, amount",[4]; [16],3.2 mL
same,"24 h separation, appearance",[4]; [16],GC
same,Spon. (spontaneity),[4]; [16],P
CCC=CCCCCCCCCOCCO (mixture of isomers) [A12-4],"1 h separation, amount",[1]; [5],6.2 mL
same,"1 h separation, appearance",[1]; [5],C
same,"24 h separation, amount",[1]; [5],8.8 mL
same,"24 h separation, appearance",[1]; [5],C
same,Spon. (spontaneity),[1]; [5],F
same,"1 h separation, amount",[1]; [6],6.9 mL
same,"1 h separation, appearance",[1]; [6],C
same,"24 h separation, amount",[1]; [6],8.6 mL
same,"24 h separation, appearance",[1]; [6],C
same,Spon. (spontaneity),[1]; [6],F
same,"1 h separation, amount",[1]; [7],NS
same,Spon. (spontaneity),[1]; [7],G
same,"1 h separation, amount",[1]; [8],11 mL
same,"1 h separation, appearance",[1]; [8],C
same,"24 h separation, amount",[1]; [8],"2 O, 3 CO"
same,Spon. (spontaneity),[1]; [8],F
same,"1 h separation, amount",[1]; [9],3.1 mL
same,"1 h separation, appearance",[1]; [9],C
same,"24 h separation, amount",[1]; [9],5.9 mL
same,"24 h separation, appearance",[1]; [9],C
same,Spon. (spontaneity),[1]; [9],F
same,"1 h separation, amount",[1]; [10],3.1 mL
same,"1 h separation, appearance",[1]; [10],C
same,"24 h separation, amount",[1]; [10],6 mL
same,"24 h separation, appearance",[1]; [10],C
same,Spon. (spontaneity),[1]; [10],F
same,"24 h separation, amount",[3],NS
same,"1 h separation, amount",[4]; [11],6 mL
same,"1 h separation, appearance",[4]; [11],C
same,"24 h separation, amount",[4]; [11],6.7 mL
same,"24 h separation, appearance",[4]; [11],C
same,Spon. (spontaneity),[4]; [11],P
same,"1 h separation, amount",[4]; [12],4.7 mL
same,"1 h separation, appearance",[4]; [12],O
same,"24 h separation, amount",[4]; [12],4.5 mL
same,"24 h separation, appearance",[4]; [12],O
same,Spon. (spontaneity),[4]; [12],P
same,"1 h separation, amount",[4]; [13],8 mL
same,"1 h separation, appearance",[4]; [13],C
same,Spon. (spontaneity),[4]; [13],P
same,"1 h separation, amount",[4]; [14],5.2 mL
same,"1 h separation, appearance",[4]; [14],O
same,"24 h separation, amount",[4]; [14],5.2 mL
same,"24 h separation, appearance",[4]; [14],O
same,Spon. (spontaneity),[4]; [14],P
same,"1 h separation, amount",[4]; [15],2.3 mL
same,"1 h separation, appearance",[4]; [15],C
same,"24 h separation, amount",[4]; [15],2.5 mL
same,"24 h separation, appearance",[4]; [15],GC
same,Spon. (spontaneity),[4]; [15],P
same,"1 h separation, amount",[4]; [16],2.3 mL
same,"1 h separation, appearance",[4]; [16],C
same,"24 h separation, amount",[4]; [16],2.7 mL
same,"24 h separation, appearance",[4]; [16],GC
same,Spon. (spontaneity),[4]; [16],P
